PMC6410080 (Viruses, 2019)
Several values for one entry are separate records, joined by “and”; a condition that tells them apart may be missing. Equal entries are not always repeated. Structures can show the parent of a compound that is named as a salt. Where two headings read alike, the source gives them in different places.

Experiments:
SFV [1] = assay: microbe, parasite or virus in culture; assay type: cell-based, Semliki Forest virus; details: for % inhibition (SFV screen): 10 µM
DENV-2 = DENV-2 infection assay / secondary screen (E protein staining); assay type: cell-based, dengue virus serotype 2; details: for % inhibition (DENV-2 screen): 10 µM; for inhibition at 10 µM: read-out: % inhibition (DENV-2 screen)
HeLa Kyoto cells [2] = details: 10 µM
Huh7 cells [3] = details: 10 µM
[4] = system: Renilla luciferase expression (protein synthesis); assay type: cell-based
in vitro [5] = details: human, % viability (SFV screen)
in vitro [6] = details: human
SINV = assay: microbe, parasite or virus in culture; assay type: cell-based, Sindbis virus; details: read-out: IC50 SINV
DENV-1 = assay: microbe, parasite or virus in culture; assay type: cell-based, dengue virus
DENV-3 = assay: microbe, parasite or virus in culture; assay type: cell-based, dengue virus
ZIKV = assay: microbe, parasite or virus in culture; assay type: cell-based, Zika virus
YF17D = assay: organism not typed; assay type: cell-based, yellow fever 17D
HCV = assay: microbe, parasite or virus in culture; assay type: cell-based, hepatitis C virus
VSV VLP = assay: microbe, parasite or virus in culture; assay type: cell-based, vesicular stomatitis virus; details: read-out: IC50 VSV
RABV VLP = assay: microbe, parasite or virus in culture; assay type: cell-based, rabies virus; details: read-out: IC50 RABV
H5N1 VLP = assay: microbe, parasite or virus in culture; assay type: cell-based, influenza H5N1; details: for IC50: read-out: IC50 H5N1
EBOV VLP = assay: microbe, parasite or virus in culture; assay type: cell-based, Ebola virus; details: for IC50: read-out: IC50 EBOV
HSV-1 = assay: microbe, parasite or virus in culture; assay type: cell-based, herpes simplex virus 1; details: read-out: IC50 HSV (Vero)
VACV = assay: microbe, parasite or virus in culture; assay type: cell-based, vaccinia virus
SFV [7] = assay type: cell-based, Semliki Forest virus
viruses/VLPs tested = assay type: cell-based
HeLa Kyoto cells [8] = system: HeLa Kyoto cells
Huh7 cells [9] = assay: MTT assay, Huh7 cells; details: for TC50 DENV-2 (7 + 17 h): Huh7, compounds 7 h then compound-free media 17 h; for TC50 DENV-2 (24 h): Huh7, compounds 24 h
HIV-1 = assay: microbe, parasite or virus in culture; assay type: cell-based, human immunodeficiency virus type 1
[10] = Huh7, 24 h, compared to DMSO-treated controls
[11] = Dengue virus, DENV2, Huh-7, 24 h
[12] = Huh7, MOI 1, 24 h, compared to DMSO-treated controls
[13] = Huh7, compounds 7 h then media replaced for 17 h, read-out: IC50 DENV-2 (7 + 17 h)
[14] = Huh7, compounds for entire 24 h, read-out: IC50 DENV-2 (24 h)

Cl.Cn1c(CCCC(=O)O)nc2cc(N(CCCl)CCCl)ccc21 [Bendamustine hydrochloride]
% inhibition (SFV screen) (SFV [1]): 104.91% | % inhibition (DENV-2 screen) (DENV-2): 56.91% | % viability (SFV screen) (HeLa Kyoto cells [2]): 76.50% | % viability (DENV-2 screen) (Huh7 cells [3]; [10]): 85.62%

CC[C@H]1CN2CCc3cc(OC)c(OC)cc3[C@@H]2C[C@@H]1C[C@H]1NCCc2cc(OC)c(OC)cc21 [Emetine dihydrochloride hydrate]
inhibition at 10 µM (SFV [1]; Semliki Forest virus, M-HeLa, 7 h, read-out: % inhibition (SFV screen)): 104% | inhibition at 10 µM (DENV-2; [11]): 100% | Renilla signal (in words) [4]: significantly reduced the Renilla signal | viability at 10 µM (in vitro [5]): 104% | viability at 10 µM (in vitro [6]): 51.2%

COc1ccc(C[C@@H](C)NC[C@H](O)c2ccc(O)c(NC=O)c2)cc1.COc1ccc(C[C@@H](C)NC[C@H](O)c2ccc(O)c(NC=O)c2)cc1.O=C(O)/C=C/C(=O)O [Formoterol fumarate]
% inhibition (SFV screen) (SFV [1]): 86.74% | % inhibition (DENV-2 screen) (DENV-2): -41.42% | % viability (SFV screen) (HeLa Kyoto cells [2]; HeLa Kyoto, 7 h, compared to DMSO-treated controls, LOPAC and Prestwick samples listed separately): 97.47% | % viability (DENV-2 screen) (Huh7 cells [3]; [10]): 102.07%

Cl.Cl.Fc1ccc(C(OCCN2CCN(CCCc3ccccc3)CC2)c2ccc(F)cc2)cc1 [GBR 12909 dihydrochloride]
% inhibition (SFV screen) (SFV [1]): 75.39% | % inhibition (DENV-2 screen) (DENV-2; [12]): 83.87% | % viability (SFV screen) (HeLa Kyoto cells [2]): 90.30% | % viability (DENV-2 screen) (Huh7 cells [3]): 38.91%

CCOC(=O)N1CCN(/[N+]([O-])=N/Oc2ccc([N+](=O)[O-])cc2[N+](=O)[O-])CC1 [JS-K]
% inhibition (SFV screen) (SFV [1]): 84.89% | % inhibition (DENV-2 screen) (DENV-2; [12]): 84.24% | % viability (SFV screen) (HeLa Kyoto cells [2]): 66.74% | % viability (DENV-2 screen) (Huh7 cells [3]; [10]): 53.82%

O=C1c2c(O)ccc(O)c2C(=O)c2c(NCCNCCO)ccc(NCCNCCO)c21 [Mitoxantrone, Mitoxantrone dihydrochloride]
% inhibition (SFV screen) (SFV [1]): 59.01% and 85.19% | IC50 (SFV [1]; Semliki Forest virus, HeLa Kyoto, read-out: IC50 SFV (7 h)): 7 µM | inhibition at 10 µM (DENV-2; [11]): 99.4% | IC50 (DENV-2; Dengue virus, DENV2, Huh-7, 24 h, read-out: IC50 DENV-2 (7 + 17 h)): 2 µM | IC50 (DENV-2; Dengue virus, DENV2, Huh-7, 24 h, read-out: IC50 DENV-2 (24 h)): 2.1 µM | IC50 (SINV; Sindbis virus, HeLa Kyoto): 9.9 µM | IC50 (DENV-1; Dengue virus, DENV1, Huh-7, read-out: IC50 DENV-1): 5.6 µM | IC50 (DENV-3; Dengue virus, DENV3, Huh-7, read-out: IC50 DENV-3): 6.3 µM | IC50 (ZIKV; Zika virus, Huh-7, read-out: IC50 ZIKV): ~25 µM | IC50 (YF17D; Huh-7, read-out: IC50 YF17D): 2.2 µM | IC50 (HCV; Hepatitis C virus, Huh7.5, read-out: IC50 HCV): 2.7 µM | IC50 (VSV VLP; Vesicular stomatitis virus, HeLa Kyoto, 24 h): 0.6 µM | IC50 (RABV VLP; Lyssavirus rabies, HeLa Kyoto, 24 h): < 0.5 µM | IC50 (H5N1 VLP; Influenza A virus, H5N1, HeLa Kyoto, 48 h): 2.8 µM | IC50 (EBOV VLP; Zaire ebolavirus, HeLa Kyoto, 48 h): 0.1 µM | IC50 (HSV-1; Human alphaherpesvirus 1, Vero, 8 h): 6.8 µM | IC50 VACV (VACV): No inhibition | Activity when added before SFV or 30 and 60 min after internalisation (SFV [7]): progressive and more dramatic decrease in activity | Time of Addition (SFV [7]): Before and after fusion | Viruses Inhibited (viruses/VLPs tested): Unclear pattern | TC50 SFV (7 h) (HeLa Kyoto cells [8]; human): 43.2 µM | TC50 SFV (7h) (HeLa Kyoto cells [8]; human): 43200 µM | % viability (SFV screen) (HeLa Kyoto cells [2]; human): 88.92% | viability at 10 µM (in vitro [5]): 88.5% | viability at 10 µM (in vitro [6]): 11.2% | TC50 DENV-2 (7 + 17 h) (Huh7 cells [9]): 7.9 µM | TC50 DENV-2 (24 h) (Huh7 cells [9]): 4.6 µM

C=CCN1CC[C@]23c4c5ccc(O)c4O[C@@H]2/C(=N/N=C2\CC[C@@]4(O)C6Cc7ccc(O)c8c7[C@@]4(CCN6CC=C)[C@@H]2O8)CC[C@@]3(O)C1C5.Cl.Cl [Naloxonazine dihydrochloride]
% inhibition (SFV screen) (SFV [1]): 70.80% | % inhibition (DENV-2 screen) (DENV-2): 16.23% | % viability (SFV screen) (HeLa Kyoto cells [2]): 87.36% | % viability (DENV-2 screen) (Huh7 cells [3]): 111.66%

O=[N+]([O-])c1ccc2c(c1)S(=O)(=O)C=C2 [Stattic]
% inhibition (SFV screen) (SFV [1]): 95.82% | % inhibition (DENV-2 screen) (DENV-2; [12]): 87.08% | IC50 (DENV-2; [13]): 3 µM | IC50 (DENV-2; [14]): 0.9 µM | IC50 (SINV): 3.6 µM | IC50 (ZIKV; read-out: IC50 ZIKV): 4 µM | IC50 (YF17D; read-out: IC50 YF17D): 4.9 µM | IC50 (HCV; read-out: IC50 HCV): 3.7 µM | IC50 (RABV VLP): 3.2 µM | IC50 H5N1 (H5N1 VLP): Toxic | IC50 EBOV (EBOV VLP): Toxic | IC50 (HIV-1; read-out: IC50 HIV): 3.2 µM | IC50 (HSV-1): 5.2 µM | IC50 (VACV; read-out: IC50 VACV): 4.1 µM | Decrease of Renilla signal (protein synthesis) [4]: more than 50% | Inhibition of protein synthesis at lower concentrations [4]: lose their inhibitory activity on protein synthesis | Activity when added before SFV or 30 and 60 min after internalisation (SFV [7]): No difference | Time of Addition (SFV [7]): After fusion | Viruses Inhibited (viruses/VLPs tested): All tested | TC50 SFV (7 h) (HeLa Kyoto cells [8]): 7.8 µM | TC50 SFV (7h) (HeLa Kyoto cells [8]): 7800 µM | % viability (SFV screen) (HeLa Kyoto cells [2]): 64.89% | % viability (DENV-2 screen) (Huh7 cells [3]): 60.49% | TC50 DENV-2 (7 + 17 h) (Huh7 cells [9]): 17.3 µM | TC50 DENV-2 (24 h) (Huh7 cells [9]): 9.7 µM

CC(=O)/C=C1\C(=O)N(C)c2ccccc21 [Supercinnamaldehyde]
% inhibition (SFV screen) (SFV [1]): 89.06% | % inhibition (DENV-2 screen) (DENV-2; [12]): 64.49% | IC50 (DENV-2; [13]): 15.4 µM | IC50 (DENV-2; [14]): 15 µM | IC50 (SINV): 24.9 µM | IC50 (DENV-1; read-out: IC50 DENV-1): ~22.7 µM | IC50 (DENV-3; read-out: IC50 DENV-3): 12.2 µM | IC50 ZIKV (ZIKV): No inhibition | IC50 (YF17D; read-out: IC50 YF17D): 7.6 µM | IC50 (HCV; read-out: IC50 HCV): 15.8 µM | IC50 (VSV VLP): 14.6 µM | IC50 (RABV VLP): 21.6 µM | IC50 (H5N1 VLP): 17.5 µM | IC50 (EBOV VLP): 21.2 µM | IC50 HIV (HIV-1): No inhibition | IC50 (HSV-1): 25.2 µM | IC50 VACV (VACV): No inhibition | Activity when added before SFV or 30 and 60 min after internalisation (SFV [7]): No difference | Time of Addition (SFV [7]): After fusion | TC50 SFV (7 h) (HeLa Kyoto cells [8]): 40.5 µM | TC50 SFV (7h) (HeLa Kyoto cells [8]): 40500 µM | % viability (SFV screen) (HeLa Kyoto cells [2]): 69.48% | % viability (DENV-2 screen) (Huh7 cells [3]): 90.32% | TC50 DENV-2 (7 + 17 h) (Huh7 cells [9]): 59.6 µM | TC50 DENV-2 (24 h) (Huh7 cells [9]): 25.8 µM

CCSc1ccc2c(c1)N(CCCN1CCN(C)CC1)c1ccccc1S2.O=C(O)CC(O)C(=O)O.O=C(O)CC(O)C(=O)O [Thiethylperazine dimalate]
% inhibition (SFV screen) (SFV [1]): 91.68% | % viability (SFV screen) (HeLa Kyoto cells [2]): 92.47% | % viability (DENV-2 screen) (Huh7 cells [3]): 0.15%
